In patent US12162867B2, “Inhibitors of RNA helicase DHX9 and uses thereof” (ACCENT THERAPEUTICS, INC., priority 2022, dated 2024):
Where two headings read alike, the source gives them in different places.

How the values were obtained:
Type in all cases: cell-based
[1] = tested on: circBRIP1 in HCT116 cells; test: DHX9 circBRIP1 cellular target engagement TaqMan Multiplex assay (qPCR); conditions: Homo sapiens, read-out: DHX9 Cellular Target Engagement EC50
[2] = tested on: LS411N cells; test: DHX9 cellular proliferation assay (CellTiter-Glo), LS411N (CRC-MSI); conditions: Homo sapiens, LS-411N, LS411N, performed at Pharmaron, read-out: LS411N (CRC-MSI-H) Antiproliferative IC50
[3] = tested on: NCI-H747 cells; test: DHX9 cellular proliferation assay (CellTiter-Glo), NCI-H747 (CRC-MSS); conditions: Homo sapiens, performed at Pharmaron, read-out: H747 (CRC-MSS) Antiproliferative IC50
[4] = HCT-116, circBRIP1, HCT116 cells, * Taqman assay was used
[5] = HCT-116, 72 h, circBRIP1, HCT116 cells, 72 hours, Taqman assay (marked *)

Compound | EC50 [1, 4] | IC50 [2] | IC50 ([3]; NCI-H747, NCI-H747) | EC50 [1, 5] | IC50 ([2]; CRC-MSI-H) | IC50 ([3]; NCI-H747, NCI-H747, CRC-MSS)
CC(=O)N1CCC(c2cnc(-c3cc(C(=O)Nc4cc(Cl)cc(NS(C)(=O)=O)c4)sc3C)nc2)CC1 [Example 699] | 21.9 nM | 517 nM | > 10000 nM |  |  | 
CCOc1cnc(-c2cc(C(=O)Nc3cc(Cl)cc(NS(=O)(=O)CC)c3)sc2C)nc1 [Example 365] |  |  |  | 33.9 nM | 116 nM | > 10000 nM
Cc1sc(C(=O)Nc2cc(Cl)cc(NS(C)(=O)=O)c2)cc1-c1ncc(N2CCC3(CC2)CC3(F)F)cc1F [Example 478] | 102 nM | 259 nM | 4840 nM |  |  | 
COC1CN(c2cnc(-n3cc(C(=O)Nc4cc(Cl)cc(NS(C)(=O)=O)c4)cc3C)nc2)C1 [Example 404] | 35.6 nM | 138 nM | > 10000 nM |  |  | 
COC(=O)N1CCN(c2cnc(-c3cc(C(=O)Nc4cc(Cl)cc(NS(C)(=O)=O)c4)cn3C)c(F)c2)CC1 [Example 464] | 17.2 nM | 247 nM | > 10000 nM |  |  | 
Cc1sc(C(=O)Nc2cc(Cl)cc(NS(C)(=O)=O)c2)cc1-c1ncc(OCC(F)(F)F)cn1 [Example 706] | 51.7 nM | 243 nM | 3880 nM |  |  | 
Cc1sc(C(=O)Nc2cc(Cl)cc(NS(C)(=O)=O)c2)cc1-c1ncc(OC(C)(C)C)cn1 [Example 559] | 42.5 nM | 74 nM | 3370 nM |  |  | 
Cn1cc(C(=O)Nc2cc(Cl)cc(NS(C)(=O)=O)c2)cc1-c1cccc(N2CC(F)(F)C2)n1 [Example 551] | 127 nM | 225 nM | 3500 nM |  |  | 
Cc1sc(C(=O)Nc2cc(Cl)cc(NS(C)(=O)=O)c2)cc1-c1ncc(N2CCC(F)(F)CC2)cc1F [Example 471] | 27.5 nM | 72.5 nM | 8870 nM |  |  | 
CCOc1cnc(-c2cc(C(=O)Nc3cc(Cl)cc(NS(C)(=O)=O)c3)cn2C)c(F)c1 [Example 453] | 54.6 nM | 218 nM | 6550 nM |  |  | 
Cc1sc(C(=O)Nc2cc(Cl)cc(NS(C)(=O)=O)c2)cc1-c1ccc(N2CC(F)(F)C2)cn1 [Example 533] | 14.5 nM | 73.9 nM | 4810 nM |  |  | 
CCOc1cnc(-c2cc(C(=O)Nc3cc(Cl)cc(NS(C)(=O)=O)c3)sc2C)c(F)c1 [Example 456] | 32.8 nM | 209 nM | 1940 nM |  |  | 
Cn1cc(C(=O)Nc2cc(Cl)cc(NS(C)(=O)=O)c2)cc1-c1ncc(OC(C)(C)C)cc1F [Example 557] | 92.6 nM | 131 nM | 2300 nM |  |  | 
Cc1sc(C(=O)Nc2cc(Cl)cc(NS(C)(=O)=O)c2)cc1-c1ncc(OC2CN(C)C2)cn1 [Example 609, N-(3-chloro-5-methanesulfonamidophenyl)-5-methyl-4-{5-[(1-methylazetidin-3-yl)oxy]pyrimidin-2-yl}thiophene-2-carboxamide] | 4.7 nM | 658 nM | > 10000 nM |  |  | 
CCS(=O)(=O)Nc1cc(Cl)cc(NC(=O)c2cc(-c3ncc(F)cc3F)c(C)s2)c1 [Example 347] |  |  |  | 96.8 nM | 160 nM | > 10000 nM
Cc1cc(C(=O)Nc2cc(Cl)cc(NS(C)(=O)=O)c2)cn1-c1ncc(N2CC(C(F)(F)F)C2)cn1 [Example 694] | 90 nM | 80.4 nM | 7770 nM |  |  | 
CCS(=O)(=O)Nc1cc(Cl)cc(NC(=O)c2cc(-c3ncc(F)cc3OCc3nccs3)c(C)s2)c1 [Example 622] | 55.9 nM | 48.9 nM | > 10000 nM |  |  | 
CCS(=O)(=O)Nc1cc(Cl)cc(NC(=O)c2cc(-c3ccc(F)cn3)n(C)c2)c1 [Example 579] | 103 nM | 329 nM | > 10000 nM |  |  | 
Cn1cc(C(=O)Nc2cc(Cl)cc(NS(C)(=O)=O)c2)cc1-c1ncc(N2CC(C(F)(F)F)C2)cc1F [Example 524, N-(3-chloro-5-methanesulfonamidophenyl)-5-{3-fluoro-5-[3-(trifluoromethyl)azetidin-1-yl]pyridin-2-yl}-1-methyl-1H-pyrrole-3-carboxamide] | 76.6 nM | 138 nM | 6290 nM |  |  | 

Compound | EC50 [1, 4] | IC50 [2] | IC50 ([3]; NCI-H747, NCI-H747) | EC50 [1, 5] | IC50 ([2]; CRC-MSI-H) | IC50 ([3]; NCI-H747, NCI-H747, CRC-MSS)
Cc1sc(C(=O)Nc2cc(Cl)cc(NS(C)(=O)=O)c2)cc1-c1ncc(N2CCCC(F)(F)C2)cc1F [Example 482] | 35.6 nM | 66.8 nM | 1140 nM |  |  | 
Cn1cc(C(=O)Nc2cc(Cl)cc(NS(C)(=O)=O)c2)cc1-c1ncc(N2CCC3(CC2)CC3(F)F)cc1F [Example 518] | 57.3 nM | 203 nM | > 10000 nM |  |  | 
CN1CC(Oc2cnc(-c3cc(C(=O)Nc4cc(Cl)cc(NS(C)(=O)=O)c4)cn3CC(F)(F)F)nc2)C1 [Example 613] | 116 nM | 173 nM | > 10000 nM |  |  | 
Cc1sc(C(=O)Nc2cc(Cl)cc(NS(C)(=O)=O)c2)cc1-c1ncc(OC2CN(C)C2)cc1F [Example 635] | 19.1 nM | 79.2 nM | > 10000 nM |  |  | 
Cn1cc(C(=O)Nc2cc(Cl)cc(NS(C)(=O)=O)c2)cc1-c1ccc(N2CC(C(F)(F)F)C2)cn1 [Example 497] | 43.7 nM | 169 nM | 2490 nM |  |  | 
Cc1sc(C(=O)Nc2cc(Cl)cc(NS(C)(=O)=O)c2)cc1-c1ncc(C2CCN(CC(F)(F)F)CC2)cc1F [Example 618] | 45.4 nM | 132 nM | 1850 nM |  |  | 
Cc1ncc(OCc2cc(F)cc(F)c2)c(-c2cc(C(=O)Nc3cc(Cl)cc(NS(C)(=O)=O)c3)cn2C)n1 [Example 734] | 3 nM | 10.6 nM | 6170 nM |  |  | 
CNc1cnc(-c2cc(C(=O)Nc3cc(Cl)cc(NS(C)(=O)=O)c3)sc2C)nc1 [Example 616, N-(3-chloro-5-methanesulfonamidophenyl)-5-methyl-4-[5-(methylamino)pyrimidin-2-yl]thiophene-2-carboxamide] | 17.3 nM | 348 nM | > 10000 nM |  |  | 
Cn1cc(C(=O)Nc2cc(Cl)cc(NS(C)(=O)=O)c2)cc1-c1ccc(N2CCCC2)cn1 [Example 402] | 68.6 nM | 167 nM | 7050 nM |  |  | 
Cc1sc(C(=O)Nc2cc(Cl)cc(NS(C)(=O)=O)c2)cc1-c1ncc(N2CC(F)(F)C2)cc1OC(C)C [Example 534] | 87.6 nM | 55.4 nM | > 10000 nM |  |  | 
Cn1cc(C(=O)Nc2cc(Cl)cc(NS(C)(=O)=O)c2)cc1-c1ncc(N2CC(F)C2)cn1 [Example 598] | 50.6 nM | 174 nM | > 10000 nM |  |  | 
CC(C)Oc1cnc(-c2csc(C(=O)Nc3cc(Cl)cc(NS(C)(=O)=O)c3)c2)nc1 [Example 457] | 85.3 nM | 76.1 nM | 4800 nM |  |  | 
CCS(=O)(=O)Nc1cc(Cl)cc(NC(=O)c2cc(-c3ncc(F)cc3OC)c(C)s2)c1 [Example 354] |  |  |  | 34.5 nM | 71.5 nM | 8060 nM
CCS(=O)(=O)Nc1cc(Cl)cc(NC(=O)c2cc(-c3ccc(N4CC(F)(F)C4)cn3)n(C)c2)c1 [Example 403] | 100 nM | 230 nM | 7410 nM |  |  | 
Cc1sc(C(=O)Nc2cc(Cl)cc(NS(C)(=O)=O)c2)cc1-c1ncc(N2CCC3(CC2)COC3)cc1F [Example 474] | 13.5 nM | 87.2 nM | 6630 nM |  |  | 
Cn1cc(C(=O)Nc2cc(Cl)cc(NS(C)(=O)=O)c2)cc1-c1ccc(N2CCC(F)(F)C2)cn1 [Example 527] | 109 nM | 65.4 nM | 5580 nM |  |  | 
Cn1cc(C(=O)Nc2cc(Cl)cc(NS(C)(=O)=O)c2)cc1-c1ccc(N2CC(C)(F)C2)cn1 [Example 688] | 47.5 nM | 122 nM | 6360 nM |  |  | 
Cn1cc(C(=O)Nc2cc(Cl)cc(NS(C)(=O)=O)c2)cc1-c1ccc(C2CCN(CC(F)(F)F)CC2)cn1 [Example 619] | 84.5 nM | 178 nM | 3620 nM |  |  | 
COc1cnc(-c2cc(C(=O)Nc3cc(Cl)cc(NS(C)(=O)=O)c3)sc2C)c(F)c1 [Example 358] |  |  |  | 53.3 nM | 129 nM | 6870 nM
